Results on two molecules are retold here after publication PMC8228075, “In Vitro and In Silico Characterization of G-Protein Coupled Receptor (GPCR) Targets of Phlorofucofuroeckol-A and Dieckol” (Marine Drugs, 2021).

Where “and” joins values, the source holds several entries; their conditions need not be identical. Equal entries are not always repeated. Where two headings read alike, the source gives them in different places. Marks after values point to notes of the source that are not given here.

In assay [1] the target is T1, Alpha-2A adrenergic receptor (hα2AAR) (Homo sapiens, UniProt P08913).
T1 construct: host or cells: rat basophil leukemia cells
T1 sequence (P08913 1-465): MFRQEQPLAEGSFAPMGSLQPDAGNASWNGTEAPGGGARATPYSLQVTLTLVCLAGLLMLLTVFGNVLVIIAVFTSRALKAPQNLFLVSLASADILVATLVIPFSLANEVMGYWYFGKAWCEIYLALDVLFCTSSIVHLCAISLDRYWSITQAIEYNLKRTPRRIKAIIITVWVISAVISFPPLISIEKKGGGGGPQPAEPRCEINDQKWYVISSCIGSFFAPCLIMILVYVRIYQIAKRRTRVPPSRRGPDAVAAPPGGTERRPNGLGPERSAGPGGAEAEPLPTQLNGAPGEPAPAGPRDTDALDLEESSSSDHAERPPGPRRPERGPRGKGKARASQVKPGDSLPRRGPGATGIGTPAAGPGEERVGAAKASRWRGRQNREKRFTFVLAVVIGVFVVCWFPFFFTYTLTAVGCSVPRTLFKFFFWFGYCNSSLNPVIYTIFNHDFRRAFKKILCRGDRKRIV
Briefly: hα2AAR functional agonist assay (Ca2+ mobilization, rat basophil leukemia cells). The class given is cell-based. The settings on record: 100 µM; % of control response to 0.1 µM epinephrine bitartrate. The source says: (§1) The in-house assay protocol and experimental conditions are reported in our previous reports. The functional effect of dieckol and PFF-A was characterized based on their modulation effect on cytosolic Ca^2+ ion mobilization using a fluorimetric detection method or by measuring their effect on cAMP modulation using homogeneous time-resolved fluorescence (HTRF) detection.
(§2) The rat basophil leukemia cells were distributed in microplates at a density of 1.1 × 10^4 cells/well after suspending in a HBSS buffer (Invitrogen) containing 20 mM HEPES. Then, the fluorescent probe (Fluo8, AAT Bioquest) mixed with probenecid in HBSS buffer (Invitrogen) complemented with 20 mM Hepes (Millipore) (pH 7.4) was added into each well incubated for 60 min at 30 °C. Thereafter, the assay plates were positioned in a microplate reader (FlipR Tetra, Molecular Device) and we added test compounds, reference agonist/antagonist or HBSS buffer (basal control). Change in fluorescence intensity which varies proportionally to the free cytosolic Ca^2+ ion concentration was measured.
(Calcium assays in cells follow changes in intracellular calcium, usually with a dye or a luminescent sensor.)

In assay [2] the target is T1, Alpha-2A adrenergic receptor (hα2AAR). Briefly: hα2AAR functional antagonist assay (Ca2+ mobilization, rat basophil leukemia cells). It counts as cell-based. The settings on record: read-out: Antagonist Effect.
Source text: as §1, §2

In assay [3] the target is T2, Alpha-2C adrenergic receptor (hα2CAR) (Homo sapiens, UniProt P18825).
T2 construct: host or cells: CHO cells
T2 sequence (P18825 1-462): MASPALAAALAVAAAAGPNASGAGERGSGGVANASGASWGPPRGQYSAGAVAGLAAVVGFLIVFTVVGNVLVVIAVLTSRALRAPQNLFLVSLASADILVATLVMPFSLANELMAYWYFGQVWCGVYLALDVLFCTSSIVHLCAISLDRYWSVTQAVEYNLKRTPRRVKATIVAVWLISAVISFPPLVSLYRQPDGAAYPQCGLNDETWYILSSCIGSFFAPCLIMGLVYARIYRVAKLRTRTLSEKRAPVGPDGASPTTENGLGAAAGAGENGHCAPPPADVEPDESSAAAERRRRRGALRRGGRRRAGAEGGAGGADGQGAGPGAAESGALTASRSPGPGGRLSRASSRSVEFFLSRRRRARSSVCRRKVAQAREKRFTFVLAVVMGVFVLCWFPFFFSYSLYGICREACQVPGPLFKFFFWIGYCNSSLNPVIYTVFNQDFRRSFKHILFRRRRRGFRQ
Kind of assay: hα2CAR functional agonist assay (cAMP, HTRF, CHO cells). The class given is cell-based. The settings on record: for Agonist Effect: % of control response to 1 µM epinephrine; for EC50: agonist effect, mean ± SD, n = 3. How it is done: as §1
Functional activity of phlorotannins over hA2AR, hα2CAR, hCB1R, GLP-1R, and h5-HT1BR was determined by measuring their effects on cAMP production by the HTRF detection method using transected cells expressing human cloned receptors.
After 10 min at 37 °C, the cells were lysed and the fluorescence acceptor (D2-labeled cAMP) and fluorescence donor (anti-cAMP antibody labeled with europium cryptate) were added.
(In general: TR-FRET usually uses a lanthanide donor and a delayed reading to cut background.)

The target in assay [4] is T3, Vasopressin 1A receptor (hV1AR) (Homo sapiens, UniProt P37288).
T3 construct: host or cells: CHO-V1AR cells
T3 sequence (P37288 whole entry): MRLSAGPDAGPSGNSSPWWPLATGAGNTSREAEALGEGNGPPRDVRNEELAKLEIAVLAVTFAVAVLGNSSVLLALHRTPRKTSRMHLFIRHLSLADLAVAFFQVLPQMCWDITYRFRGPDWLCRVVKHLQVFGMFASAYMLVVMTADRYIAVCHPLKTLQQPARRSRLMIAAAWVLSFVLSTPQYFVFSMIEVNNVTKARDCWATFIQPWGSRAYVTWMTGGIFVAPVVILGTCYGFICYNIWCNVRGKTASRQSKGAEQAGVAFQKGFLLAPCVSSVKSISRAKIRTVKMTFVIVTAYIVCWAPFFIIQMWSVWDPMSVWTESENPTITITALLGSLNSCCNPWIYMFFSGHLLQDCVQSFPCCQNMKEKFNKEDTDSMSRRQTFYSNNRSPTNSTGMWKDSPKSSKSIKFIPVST
Kind of assay: hV1AR functional agonist assay (Ca2+ mobilization, CHO-V1AR cells). The settings on record: for Agonist Effect: % of control response to 1 µM AVP. The class given is cell-based.
Source text: as §1
Then, fluorescent probe (Fluo4, Invitrogen) mixed with probenecid in HBSS buffer (Invitrogen, Carlsbad, CA, USA) supplemented with 20 mM HEPES, pH 7.4 (Invitrogen) was added to each well, allowing to equilibrate with the cells for 60 min at 37 °C, then 15 min at 22 °C.

In assay [5] the target is T4, δ-opioid receptor (hδ-OPR) (Homo sapiens, UniProt P41143).
T4 construct: host or cells: rat basophil leukemia cells
T4 sequence (P41143 whole entry): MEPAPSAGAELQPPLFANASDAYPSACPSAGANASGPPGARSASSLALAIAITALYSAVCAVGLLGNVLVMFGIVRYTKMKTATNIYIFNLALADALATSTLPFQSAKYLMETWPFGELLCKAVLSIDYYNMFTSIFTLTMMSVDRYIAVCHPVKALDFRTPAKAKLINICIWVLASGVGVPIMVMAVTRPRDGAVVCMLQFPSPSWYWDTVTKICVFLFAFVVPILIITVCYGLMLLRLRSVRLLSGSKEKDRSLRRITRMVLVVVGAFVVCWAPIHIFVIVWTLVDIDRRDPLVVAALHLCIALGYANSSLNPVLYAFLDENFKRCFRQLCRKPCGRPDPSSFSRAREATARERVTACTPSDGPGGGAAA
Kind of assay: hδ-OPR functional agonist assay (Ca2+ mobilization, rat basophil leukemia cells). The settings on record: 100 µM; % of control response to 1 µM DPDPE. The class given is cell-based.
Source text: as §1
Thereafter, a mixture of fluorescent probe (Fluo8, AAT Bioquest) and probenecid in HBSS buffer (Invitrogen) complemented with 20 mM Hepes (Millipore) (pH 7.4) was added and plates were incubated for 60 min at 30 °C. Then, the assay plates were positioned in a FlipR Tetra microplate reader (Molecular Device, San Jose, CA, USA) for the addition of the test compound, reference agonist/antagonist, or HBSS buffer (basal control). Change in fluorescence intensity that varies proportionally to the free cytosolic Ca^2+ ion concentration was measured.

Assay [6] has as its target T3, Vasopressin 1A receptor (hV1AR). Also noted: method as in PMID 31238535. The settings on record: 100 µM, % of control response to 1 µM AVP, value extracted from previous study ref 22, cited from earlier work.

With `Oc1cc(O)cc(Oc2c(O)cc(O)c3c2Oc2c(O)cc(Oc4c(O)cc(Oc5c(O)cc(O)c6c5Oc5c(O)cc(O)cc5O6)cc4O)cc2O3)c1` [Dieckol, dieckol], the “Agonist Effect” value in assay [1] turned out to be 13.4 ± 19.87%; in assay [3] (100 µM), 52.4 ± 4.24%; in assay [3] (150 µM), 73.0 ± 6.42%; in assay [3] (200 µM) it was 74.77 ± 6.60%; in assay [4] (50 µM) it was 50.40 ± 0.42%; in assay [4] (100 µM) it was 106.73 ± 2.97%. In addition, the “Agonist Effect” value in assay [4] (150 µM) is 118.1 ± 2.83%; in assay [5], −5.7 ± 0.14%. The inhibition at 100 µM in assay [2] stood at 46.1 ± 20.1%. Besides, the 50% effective concentration (EC50) – broadly, the concentration needed to bring the measured effect to its halfway point – is 98.8 ± 7.71 µM in assay [3] and 39.1 ± 2.12 µM in assay [4] (agonist effect, mean ± SD, n = 3).
For `Oc1cc(O)cc(Oc2c(O)cc(O)c3c2Oc2c(O)cc4oc5c(Oc6cc(O)cc(O)c6)c(O)cc(O)c5c4c2O3)c1` [PFF-A, phlorofucofuroeckol-A], the “Agonist Effect” value in assay [1] was −0.5 ± 0.85%; in assay [3] (12.5 µM), 22.03 ± 6.61%; in assay [3] (25 µM), 55% and 55.0 ± 9.13%; in assay [3] (50 µM), 62.27 ± 6.53%; in assay [3] (100 µM) it was 83.8 ± 0.07%; in assay [6], 38.45 ± 7.14% and 38.45 ± 7.14 ^c %. The entries for the “Agonist Effect” value in assay [6] (listed as Phlorofucofuroeckol-A) and in assay [5] were 38.45 ± 7.14 ^a % and 14.7 ± 7.35%, respectively. In addition, in assay [2], the inhibition at 100 µM was determined as 20.9 ± 1.77%. Besides, the 50% effective concentration (EC50) in assay [3] turned out to be 23.7 ± 3.32 µM.
